Activity calls are given as the source filed them. No cut-off for these calls is given here.
Assays:
[1] = target: Muscarinic acetylcholine receptor M2 (Homo sapiens) (UniProt P08172); experiment: Binding affinity to M2 receptor (unknown origin) at 10 uM by radioligand binding assay relative to control
[2] = Toxicity in male Beagle dog assessed as change in food consumption at 0.75 to 2.5 mg/kg, IG administered once daily for 4 weeks and measured after 4 weeks; type: organism-based, Canis lupus familiaris; conditions: in vivo, po, 1344 h, dose 0.75-2.5 mg/kg, time 8 weeks
[3] = target: Sodium-dependent serotonin transporter (Homo sapiens) (UniProt P31645); experiment: Binding affinity to 5-HTT (unknown origin) at 10 uM by radioligand binding assay relative to control
[4] = target: Adenosine receptor A2a (Homo sapiens) (UniProt P29274); experiment: Binding affinity to ADORA2A (unknown origin) at 10 uM by radioligand binding assay relative to control
[5] = Toxicity in male Beagle dog assessed as change in urinalysis at 0.75 to 2.5 mg/kg, IG administered once daily for 4 weeks and measured after 4 weeks; type: organism-based, Canis lupus familiaris; conditions: in vivo, po, 1344 h, dose 0.75-2.5 mg/kg, time 8 weeks
[6] = Toxicity in male Sprague-Dawley rat assessed as suppression of body weight gain at 7.5 mg/kg, po administered once daily for 4 weeks and measured after 4 weeks; type: organism-based; conditions: in vivo, 1344 h, time 8 weeks
[7] = Toxicity in female Sprague-Dawley rat assessed as suppression of food consumption at 7.5 mg/kg, po administered once daily for 4 weeks and measured after 4 weeks; type: organism-based; conditions: in vivo, 1344 h, time 8 weeks
[8] = Toxicity in male Sprague-Dawley rat assessed as change in urinalysis at 2.5 to 7.5 mg/kg, po administered once daily for 4 weeks and measured after 4 weeks; type: organism-based; conditions: in vivo, 1344 h, dose 2.5-7.5 mg/kg, time 8 weeks
[9] = target: Alpha-1A adrenergic receptor (Homo sapiens) (UniProt P35348); experiment: Binding affinity to alpha 1A (unknown origin) at 10 uM by radioligand binding assay relative to control
[10] = Toxicity in female Sprague-Dawley rat assessed as change in urinalysis at 2.5 to 7.5 mg/kg, po administered once daily for 4 weeks and measured after 4 weeks; type: organism-based; conditions: in vivo, 1344 h, dose 2.5-7.5 mg/kg, time 8 weeks
[11] = Cardiotoxicity in conscious cynomolgus monkey assessed as change in diastolic pressure at 3.125 to 12.5 mg/kg, IG measured within 25 hrs; type: toxicity, organism-based, Macaca fascicularis; conditions: in vivo, po, dose 3.125-12.5 mg/kg
[12] = Metabolic stability in rat liver microsomes assessed as intrinsic clearance at 1 uM incubated for 60 mins by LC-MS/MS analysis; type: ADME, Microsome; conditions: read-out: CLH
[13] = Toxicity in Sprague-Dawley rat assessed as catalepsy 2.5 to 7.5 mg/kg, po administered once daily for 4 weeks; type: organism-based; conditions: in vivo, 672 h, dose 2.5-7.5 mg/kg
[14] = target: Muscarinic acetylcholine receptor M3 (Homo sapiens) (UniProt P20309); experiment: Binding affinity to M3 receptor (unknown origin) at 10 uM by radioligand binding assay relative to control
[15] = target: GABA-A receptor; anion channel (Homo sapiens) (UniProt P14867+P47870+P18507+P28472+P48169+Q99928+Q9UN88+P34903+O00591+O14764+Q8N1C3+P18505+P78334+P47869+P31644+Q16445); experiment: Binding affinity to GABAA (unknown origin) at 10 uM by radioligand binding assay relative to control; type: protein-complex assay
[16] = Toxicity in female Beagle dog assessed as change in body temperature at 0.75 to 2.5 mg/kg, IG administered once daily for 4 weeks and measured after 4 weeks; type: organism-based, Canis lupus familiaris; conditions: in vivo, po, 1344 h, dose 0.75-2.5 mg/kg, time 8 weeks
[17] = Toxicity in male Sprague-Dawley rat assessed as change in hematology at 2.5 to 7.5 mg/kg, po administered once daily for 4 weeks and measured after 4 weeks; type: organism-based; conditions: in vivo, 1344 h, dose 2.5-7.5 mg/kg, time 8 weeks
Nav1.5 = Nav1.5 (Homo sapiens, UniProt Q14524); experiment: Binding affinity to human Nav1.5 receptor at 10 uM by radioligand binding assay relative to control; conditions: read-out: Activity
[18] = Toxicity in female Sprague-Dawley rat assessed as minimal corneal neovascularization at 7.5 mg/kg, po administered once daily for 4 weeks; type: organism-based; conditions: in vivo, 672 h
[19] = Toxicity in female Sprague-Dawley rat assessed as change in prolactin level at 2.5 to 7.5 mg/kg, po administered once daily for 4 weeks and measured after 4 weeks; type: organism-based; conditions: in vivo, 1344 h, dose 2.5-7.5 mg/kg, time 8 weeks
[20] = Mutagenicity in Salmonella typhimurium TA97a by Ames test; type: toxicity; conditions: salmonella enterica subsp. enterica serovar typhimurium
[21] = Toxicity in female Sprague-Dawley rat assessed as suppression of food consumption at 7.5 mg/kg, po administered once daily for 4 weeks and measured weekly twice; type: organism-based; conditions: in vivo, 672 h
[22] = target: Mu-type opioid receptor (Homo sapiens) (UniProt P35372); experiment: Binding affinity to op-mu receptor (unknown origin) at 10 uM by radioligand binding assay relative to control
[23] = Toxicity in female Sprague-Dawley rat assessed as irritability at 2.5 mg/kg, po administered once daily for 4 weeks and measured after 4 weeks; type: organism-based; conditions: in vivo, 1344 h, time 8 weeks
Cytochrome P450 2C8 = Cytochrome P450 2C8 (Homo sapiens, UniProt P10632); experiment: Inhibition of CYP2C8 in human liver microsomes in presence of NADPH by LC-MS/MS analysis; type: ADME, Microsome
[24] = Toxicity in male Beagle dog assessed as change in blood pressure at 0.75 to 2.5 mg/kg, IG administered once daily for 4 weeks and measured after 4 weeks; type: organism-based, Canis lupus familiaris; conditions: in vivo, po, 1344 h, dose 0.75-2.5 mg/kg, time 8 weeks
[25] = target: Acetylcholinesterase (Homo sapiens) (UniProt P22303); experiment: Binding affinity to ACHE (unknown origin) at 10 uM by radioligand binding assay relative to control
[26] = target: Neuronal acetylcholine receptor subunit alpha-7 (Homo sapiens) (UniProt P36544); experiment: Binding affinity to nACHR-alpha7 (unknown origin) at 10 uM by radioligand binding assay relative to control
[27] = Toxicity in male Sprague-Dawley rat assessed as irritability at 2.5 mg/kg, po administered once daily for 4 weeks; type: organism-based; conditions: in vivo, 672 h
[28] = Toxicity in male Sprague-Dawley rat assessed as change in clinical chemistry at 2.5 to 7.5 mg/kg, po administered once daily for 4 weeks and measured after 4 weeks; type: organism-based; conditions: in vivo, 1344 h, dose 2.5-7.5 mg/kg, time 8 weeks
Cytochrome P450 2B6 = Cytochrome P450 2B6 (Homo sapiens, UniProt P20813); experiment: Inhibition of CYP2B6 in human liver microsomes in presence of NADPH by LC-MS/MS analysis; type: ADME, Microsome
[29] = Toxicity in male Sprague-Dawley rat assessed as corneal epithelial degeneration at 2.5 to 7.5 mg/kg, po administered once daily for 4 weeks and measured after 4 weeks; type: organism-based; conditions: in vivo, 1344 h, dose 2.5-7.5 mg/kg, time 8 weeks
[30] = Toxicity in female Beagle dog assessed as change in prolactin at 0.75 to 2.5 mg/kg, IG administered once daily for 4 weeks and measured after 4 weeks; type: organism-based, Canis lupus familiaris; conditions: in vivo, po, 1344 h, dose 0.75-2.5 mg/kg, time 8 weeks
[31] = Toxicity in female Sprague-Dawley rat assessed as suppression of body weight gain at 7.5 mg/kg, po administered once daily for 4 weeks and measured weekly twice; type: organism-based; conditions: in vivo, 672 h
Mus musculus = experiment: Antipsychotic activity in amyloid beta(1 to 42) induced cognitive impairment in mouse model assessed as increase in discrimination ratio of novel objects at 1 mg/kg, IG measured after 24 hrs by novel object recognition test; type: functional, organism-based
[32] = Toxicity in female Sprague-Dawley rat assessed as slow respiration at 7.5 mg/kg, po administered once daily for 4 weeks and measured after 4 weeks; type: organism-based; conditions: in vivo, 1344 h, time 8 weeks

Chain of Acetylcholinesterase (Homo sapiens) (P22303 whole entry): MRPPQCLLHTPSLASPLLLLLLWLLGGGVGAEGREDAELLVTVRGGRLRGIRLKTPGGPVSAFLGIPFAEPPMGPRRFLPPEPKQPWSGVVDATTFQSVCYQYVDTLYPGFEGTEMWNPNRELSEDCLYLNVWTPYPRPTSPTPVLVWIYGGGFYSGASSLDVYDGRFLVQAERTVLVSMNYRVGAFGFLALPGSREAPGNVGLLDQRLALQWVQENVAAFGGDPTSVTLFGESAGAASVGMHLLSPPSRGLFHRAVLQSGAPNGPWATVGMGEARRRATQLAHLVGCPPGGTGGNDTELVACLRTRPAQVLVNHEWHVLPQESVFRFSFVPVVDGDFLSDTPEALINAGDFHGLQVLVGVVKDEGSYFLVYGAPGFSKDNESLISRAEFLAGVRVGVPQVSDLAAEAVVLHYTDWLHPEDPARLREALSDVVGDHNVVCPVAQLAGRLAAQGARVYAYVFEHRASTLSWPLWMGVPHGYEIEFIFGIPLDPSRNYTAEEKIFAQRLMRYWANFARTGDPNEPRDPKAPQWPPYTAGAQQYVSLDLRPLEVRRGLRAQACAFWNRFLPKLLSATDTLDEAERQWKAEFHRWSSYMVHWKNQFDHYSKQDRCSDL
Chain of Muscarinic acetylcholine receptor M3 (Homo sapiens) (P20309 whole entry, looked up): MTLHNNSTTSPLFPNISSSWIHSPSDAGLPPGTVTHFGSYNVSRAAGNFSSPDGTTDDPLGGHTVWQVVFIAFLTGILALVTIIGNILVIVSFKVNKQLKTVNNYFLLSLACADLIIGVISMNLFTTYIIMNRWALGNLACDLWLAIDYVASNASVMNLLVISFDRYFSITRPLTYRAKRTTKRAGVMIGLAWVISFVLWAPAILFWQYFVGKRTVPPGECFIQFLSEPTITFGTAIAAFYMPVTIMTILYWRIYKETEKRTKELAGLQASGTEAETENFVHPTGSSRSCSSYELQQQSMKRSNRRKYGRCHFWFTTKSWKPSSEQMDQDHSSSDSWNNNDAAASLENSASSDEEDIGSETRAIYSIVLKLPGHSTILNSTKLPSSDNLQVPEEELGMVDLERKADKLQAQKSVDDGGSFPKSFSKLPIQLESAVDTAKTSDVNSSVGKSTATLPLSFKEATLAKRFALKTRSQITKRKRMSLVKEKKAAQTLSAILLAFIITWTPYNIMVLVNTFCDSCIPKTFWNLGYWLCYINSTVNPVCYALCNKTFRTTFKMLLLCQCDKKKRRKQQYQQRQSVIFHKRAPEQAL
Chain of Cytochrome P450 2B6 (P20813 whole entry): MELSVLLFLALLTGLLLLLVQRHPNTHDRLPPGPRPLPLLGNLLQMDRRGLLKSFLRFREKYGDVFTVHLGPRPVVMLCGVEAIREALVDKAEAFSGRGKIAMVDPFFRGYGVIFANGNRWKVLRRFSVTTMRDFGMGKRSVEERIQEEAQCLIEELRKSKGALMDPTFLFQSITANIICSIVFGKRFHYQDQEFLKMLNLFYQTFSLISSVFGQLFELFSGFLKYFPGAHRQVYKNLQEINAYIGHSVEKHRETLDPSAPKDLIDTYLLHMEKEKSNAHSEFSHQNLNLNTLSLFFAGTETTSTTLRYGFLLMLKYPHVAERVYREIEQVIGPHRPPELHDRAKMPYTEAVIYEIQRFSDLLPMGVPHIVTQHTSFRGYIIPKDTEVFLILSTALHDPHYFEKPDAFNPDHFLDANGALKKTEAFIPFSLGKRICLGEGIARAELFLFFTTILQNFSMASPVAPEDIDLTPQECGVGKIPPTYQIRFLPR
Chain of Mu-type opioid receptor (Homo sapiens) (P35372 whole entry): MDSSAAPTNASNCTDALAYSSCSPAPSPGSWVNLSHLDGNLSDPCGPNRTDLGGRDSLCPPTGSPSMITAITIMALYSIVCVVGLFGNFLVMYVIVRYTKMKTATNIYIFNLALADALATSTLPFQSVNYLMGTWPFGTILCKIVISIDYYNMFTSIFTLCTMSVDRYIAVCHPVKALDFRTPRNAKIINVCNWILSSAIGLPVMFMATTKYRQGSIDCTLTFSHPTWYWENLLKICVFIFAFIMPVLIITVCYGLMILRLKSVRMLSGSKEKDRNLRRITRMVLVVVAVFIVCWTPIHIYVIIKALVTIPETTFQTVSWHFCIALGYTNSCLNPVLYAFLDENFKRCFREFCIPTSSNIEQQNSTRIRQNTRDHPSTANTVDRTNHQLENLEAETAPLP
Chain of Nav1.5 (Q14524 whole entry): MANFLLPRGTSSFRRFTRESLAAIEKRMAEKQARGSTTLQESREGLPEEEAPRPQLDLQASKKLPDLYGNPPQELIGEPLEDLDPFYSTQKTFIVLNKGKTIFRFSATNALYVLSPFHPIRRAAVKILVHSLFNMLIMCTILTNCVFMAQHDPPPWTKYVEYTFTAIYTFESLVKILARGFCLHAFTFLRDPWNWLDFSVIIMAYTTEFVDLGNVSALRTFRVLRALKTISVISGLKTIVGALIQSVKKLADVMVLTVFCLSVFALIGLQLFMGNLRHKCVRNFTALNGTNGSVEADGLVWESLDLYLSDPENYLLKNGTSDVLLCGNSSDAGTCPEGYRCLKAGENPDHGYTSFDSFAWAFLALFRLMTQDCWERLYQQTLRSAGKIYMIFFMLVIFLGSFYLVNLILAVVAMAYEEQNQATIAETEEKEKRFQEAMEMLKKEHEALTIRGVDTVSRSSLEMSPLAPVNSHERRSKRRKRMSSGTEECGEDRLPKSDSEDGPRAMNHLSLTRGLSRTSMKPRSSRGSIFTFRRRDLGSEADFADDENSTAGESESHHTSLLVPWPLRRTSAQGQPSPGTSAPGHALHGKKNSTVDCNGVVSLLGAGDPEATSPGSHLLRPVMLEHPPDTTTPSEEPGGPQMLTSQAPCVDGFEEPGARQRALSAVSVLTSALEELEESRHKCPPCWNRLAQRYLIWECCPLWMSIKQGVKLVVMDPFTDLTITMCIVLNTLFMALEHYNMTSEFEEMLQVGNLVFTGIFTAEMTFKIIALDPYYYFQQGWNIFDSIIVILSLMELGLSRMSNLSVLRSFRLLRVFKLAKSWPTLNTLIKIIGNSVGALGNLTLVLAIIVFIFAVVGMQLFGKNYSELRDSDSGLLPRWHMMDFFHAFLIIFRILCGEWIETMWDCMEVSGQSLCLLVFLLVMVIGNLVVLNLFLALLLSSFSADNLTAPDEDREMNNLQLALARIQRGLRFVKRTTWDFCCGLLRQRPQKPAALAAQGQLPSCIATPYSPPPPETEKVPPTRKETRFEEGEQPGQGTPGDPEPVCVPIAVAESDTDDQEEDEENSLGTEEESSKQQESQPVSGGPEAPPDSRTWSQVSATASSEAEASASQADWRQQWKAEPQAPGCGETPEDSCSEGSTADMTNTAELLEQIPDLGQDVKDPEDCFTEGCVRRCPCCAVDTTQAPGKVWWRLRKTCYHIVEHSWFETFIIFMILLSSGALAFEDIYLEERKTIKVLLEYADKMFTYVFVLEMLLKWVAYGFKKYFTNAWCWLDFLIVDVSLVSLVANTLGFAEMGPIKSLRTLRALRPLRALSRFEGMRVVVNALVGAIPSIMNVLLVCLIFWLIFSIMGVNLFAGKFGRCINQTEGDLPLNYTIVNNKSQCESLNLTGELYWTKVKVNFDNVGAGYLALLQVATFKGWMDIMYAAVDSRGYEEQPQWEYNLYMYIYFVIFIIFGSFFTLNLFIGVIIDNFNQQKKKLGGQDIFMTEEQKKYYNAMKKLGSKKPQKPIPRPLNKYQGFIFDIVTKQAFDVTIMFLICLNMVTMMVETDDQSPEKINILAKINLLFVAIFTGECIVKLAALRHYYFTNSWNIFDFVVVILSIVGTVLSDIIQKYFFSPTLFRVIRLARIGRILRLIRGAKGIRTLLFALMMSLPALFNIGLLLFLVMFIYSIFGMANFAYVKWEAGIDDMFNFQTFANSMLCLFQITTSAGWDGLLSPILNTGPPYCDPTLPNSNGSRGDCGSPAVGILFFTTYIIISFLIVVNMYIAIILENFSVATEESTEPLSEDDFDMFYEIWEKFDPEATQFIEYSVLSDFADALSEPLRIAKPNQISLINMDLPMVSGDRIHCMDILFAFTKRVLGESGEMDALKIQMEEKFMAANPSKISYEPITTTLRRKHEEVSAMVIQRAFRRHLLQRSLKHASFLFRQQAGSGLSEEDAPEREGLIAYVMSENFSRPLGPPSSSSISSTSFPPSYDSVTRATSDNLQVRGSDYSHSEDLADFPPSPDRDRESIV
Chain of Cytochrome P450 2C8 (P10632 whole entry): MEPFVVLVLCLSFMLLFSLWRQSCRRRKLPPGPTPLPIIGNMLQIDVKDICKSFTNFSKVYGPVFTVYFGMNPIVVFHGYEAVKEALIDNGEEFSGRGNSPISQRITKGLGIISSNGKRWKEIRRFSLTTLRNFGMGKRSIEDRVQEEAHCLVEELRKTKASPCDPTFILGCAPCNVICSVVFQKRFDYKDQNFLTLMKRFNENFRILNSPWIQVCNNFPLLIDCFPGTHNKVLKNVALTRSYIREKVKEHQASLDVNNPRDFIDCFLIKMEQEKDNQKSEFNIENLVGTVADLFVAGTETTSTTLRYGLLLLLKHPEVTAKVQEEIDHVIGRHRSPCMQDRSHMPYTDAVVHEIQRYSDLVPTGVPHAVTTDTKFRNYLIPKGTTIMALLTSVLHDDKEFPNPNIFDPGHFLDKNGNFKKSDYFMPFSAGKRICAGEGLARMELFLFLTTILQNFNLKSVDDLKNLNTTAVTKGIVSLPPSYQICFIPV
Chain of Muscarinic acetylcholine receptor M2 (Homo sapiens) (P08172 whole entry): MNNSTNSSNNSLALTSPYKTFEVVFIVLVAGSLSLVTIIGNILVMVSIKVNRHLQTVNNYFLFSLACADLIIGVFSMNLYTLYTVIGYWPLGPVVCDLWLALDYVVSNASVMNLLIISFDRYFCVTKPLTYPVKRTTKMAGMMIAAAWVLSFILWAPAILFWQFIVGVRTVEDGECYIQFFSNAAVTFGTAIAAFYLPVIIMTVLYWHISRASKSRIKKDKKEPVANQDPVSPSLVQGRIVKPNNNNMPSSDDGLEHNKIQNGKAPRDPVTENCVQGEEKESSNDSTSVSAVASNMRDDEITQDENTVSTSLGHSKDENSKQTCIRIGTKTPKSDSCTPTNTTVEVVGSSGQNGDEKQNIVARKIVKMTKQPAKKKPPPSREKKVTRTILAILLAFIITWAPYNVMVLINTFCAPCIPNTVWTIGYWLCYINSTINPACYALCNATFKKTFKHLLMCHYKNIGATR

Q: With `c1cc2c(s1)[C@@H]1CNCCN1CC2` as the compound, how does the Activity [1] read?
A: 28.9%

Q: And the Activity [2]?
A: Non-toxic

Q: What about the Activity [3] of the same compound?
A: 1.76%

Q: And the Activity [4]?
A: -1.11%

Q: And the Activity [5]?
A: Non-toxic

Q: What about the Activity [6] of the same compound?
A: Toxic

Q: What about the Activity [7] of the same compound?
A: Non-toxic

Q: What about the Activity [8] of the same compound?
A: Non-toxic

Q: What about the Activity [9] of the same compound?
A: 55%

Q: What about the Activity [10] of the same compound?
A: Non-toxic

Q: And the Activity [11]?
A: Non-toxic

Q: What about the CLint scaled at 1 µM [12] of the same compound?
A: < 0.81 L/h/kg

Q: And the Activity [13]?
A: Non-toxic

Q: What about the Activity [14] of the same compound?
A: 23.8%

Q: What about the Activity [15] of the same compound?
A: -21.4%

Q: And the Activity [16]?
A: Non-toxic

Q: And the Activity [17]?
A: Non-toxic

Q: And the activity at 10 µM (Nav1.5)?
A: 13.4%

Q: What about the Activity [18] of the same compound?
A: Toxic

Q: What about the Activity [19] of the same compound?
A: Non-toxic

Q: What about the Activity [20] of the same compound?
A: Non-toxic

Q: What about the Activity [21] of the same compound?
A: Toxic

Q: And the Activity [22]?
A: 18.2%

Q: What about the Activity [23] of the same compound?
A: Non-toxic

Q: And the IC50 (Cytochrome P450 2C8)?
A: > 50 µM

Q: And the Activity [24]?
A: Non-toxic

Q: What about the Activity [25] of the same compound?
A: -0.73%

Q: What about the Activity [26] of the same compound?
A: 5.02%

Q: And the Activity [27]?
A: Toxic

Q: What about the Activity [28] of the same compound?
A: Non-toxic

Q: What about the IC50 (Cytochrome P450 2B6) of the same compound?
A: > 50 µM

Q: And the Activity [29]?
A: Non-toxic

Q: What about the Activity [30] of the same compound?
A: Non-toxic

Q: And the Activity [31]?
A: Toxic

Q: And the Activity (Mus musculus)?
A: Active

Q: What about the Activity [32] of the same compound?
A: Non-toxic

From ChEMBL document CHEMBL6109139, “Rational Design of the First Dual Agonist at Trace Amine-Associated Receptor 1 and 5-HT2C Receptors Based on Binding Pocket Similarity for the Treatment of Schizophrenia and Alzheimer's Disease-Related Psychosis” (J Med Chem, 2025)
